# Reference: patent publication US10179116B2, “Methods, compositions, and kits for treating pain and pruritis” (President and Fellows of Harvard College, priority 2006, dated 2019)
# How the values were obtained:
# [1] = test system: sodium current; test: Sodium current with TRPA agonist mustard oil and QX-314 (Example 3); assay type: cell-based; details: MO alone, 50 μM
# Method: MO alone reduces sodium current by 20-30% and reaches a plateau after approximately 3 minutes.
# [2] = test system: voltage-dependent sodium channels; test: Whole-cell voltage clamp of sodium current in large capsaicin-insensitive DRG neurons; assay type: cell-based, rat; details: 10-minute application, n=10
# From the text: To test whether the ability of co-applied capsaicin and QX-314 to inhibit sodium current is selective for cells that express TRPV1 receptors, we also recorded from large DRG neurons (soma diameter >40 μm) (FIG. 1A, right). […] As for small diameter neurons, QX-314 applied alone had little or no effect on sodium current (current increased by 8±4% after a 10-minute application, n=10). Unlike small diameter neurons, capsaicin had no effect on sodium current in large diameter neurons (average increase by 3±2% after a 10-minute application, n=10).
# (§1) Dorsal root ganglia from 6-8 week old Sprague-Dawley rats were removed and placed into […] containing 1% penicillin—streptomycin (Sigma), then treated for 90 minutes with 5 mg/ml collagenase, 1 mg/ml Dispase II (Roche, Indianapolis, Ind.) and for 7 minutes with 0.25% trypsin, followed by addition of 2.5% trypsin inhibitor. Cells were triturated in the presence of […] (50 U), centrifuged through 15% BSA (Sigma), resuspended in 1 ml Neurobasal medium (Sigma), 10 μM AraC, NGF (50 ng/ml) and GDNF (2 ng/ml) and plated onto poly-lysine (500 μg/ml) and laminin (5 mg/ml) coated 35 mm tissue culture dishes (Becton Dickinson) at 8000-9000 per well. Cultures were incubated at 37° C., 5% carbon dioxide. Recordings were made within 48 hours after plating. […]
# [3] = Intraplantar injection, thermal (radiant heat) response latency; assay type: in vivo, rat; details: QX-314 at 30 min, capsaicin at 15 and 30 min, together at 2 hours, heat applied for 25 seconds
# Method: Similar effects were seen examining sensitivity to a standardized noxious radiant heat stimulus. […] This effect remained for 4 hours after the injection (FIG. 3B).
# [4] = test system: small diameter DRG neurons; test: Current clamp, action potential generation in small DRG neurons; assay type: cell-based, rat; details: QX-314 5 mM, capsaicin 1 μM, alone or co-applied
# Method: We also examined the effect of co-applied QX-314 and capsaicin in current clamp using physiological internal and external solutions.
# Current clamp recordings were made using the fast current clamp mode of the Axopatch 200A amplifier Pipette solution was 135 mM K gluconate; 2 mM MgCl2; 6 mM KCl; 10 mM HEPES; 5 mM Mg ATP; 0.5 mM Li2GTP; (pH=7.4 with KOH). External solution was 145 mM NaCl; 5 mM KCl; 1 mM MgCl2; 2 mM CaCl210 mM HEPES; 10 mM glucose; (pH adjusted to 7.4 with NaOH). Membrane potential was corrected for a liquid junction potential of −15 mV.
# Command protocols were generated and data digitized using a Digidata 1200 A/D interface with pCLAMP 8.2 software (Axon Instruments, Union City, Calif.). Voltage-clamp current records were low pass filtered at 2 kHz and current clamp recordings at 10 kHz (−3 dB, 4 pole Bessel filter).
# QX-314 (5 mM), capsaicin (1 μM or 500 nM), or their combination was applied using custom-designed multibarrel fast drug delivery system placed about 200-250 μm from the neuron. Solution exchange was complete in less than a second.
# [5] = test system: sodium channel; test: Voltage clamp of sodium channel current in small dorsal root ganglion neurons with eugenol (Example 2); assay type: cell-based
# Method: Co-application of eugenol and QX-314 produces progressive block that can be complete after 7 minutes. Two examples are depicted, which are representative of 10 experiments with similar results.
# We have also shown that eugenol (C10H12O2), an allyl chain-substituted guaiacol, 2-methoxy-4-(2-propenyl)phenol (active ingredient in oil of clove, and a non-pungent agonist of TRPV1 receptors) promotes entry of QX-314 into dorsal root ganglion neurons by activating TRPV1 channels. FIG. 5 depicts voltage clamp recordings of sodium channel current in small dorsal root ganglion neurons. […] Co-application of eugenol and QX-314 produces progressive block that can be complete after 7 minutes. Two examples are depicted, which are representative of 10 experiments with similar results. […] Thus, these experiments indicate that eugenol promotes entry of QX-314 into dorsal root ganglion neurons by activating TRPV1 channels.
# [6] = test system: voltage-dependent sodium channels; test: Whole-cell voltage clamp of sodium current in small capsaicin-sensitive DRG neurons; assay type: cell-based, rat; details: n=25
# Method: We recorded current through voltage-dependent sodium channels using whole-cell voltage clamp recordings from adult rat DRG neurons. To select for nociceptors, we recorded from small (24±5 μm; n=25) neurons and tested the neurons for the expression of TRPV1 receptors by a short (1-sec) application of 1 μM capsaicin. In 25/25 of small neurons tested, capsaicin produced a prolonged (10±3 sec) inward current (FIG. 1A, upper panel), consistent with the neurons being nociceptors. Sodium currents were elicited by depolarizing steps from a holding potential of −70 mV.
# as §1
# [7] = Intraplantar injection, mechanical threshold for paw withdrawal (von Frey hairs); details: QX-314 10 μL of 2%, capsaicin 10 μg/10 μL (15 and 30 minutes), or together (15 minutes)
# Method: (§4) We next examined if the combination of capsaicin and QX-314 can reduce pain behavior in vivo.
# (§5) For intraplantar injections, rats were first habituated to handling and tests performed with the experimenter blind to the treatment. Intraplantar injections of vehicle (20% ethanol, 5% Tween 20 in saline, 10 μL) capsaicin (1 μg/μL), QX-314 (2%) or mixture of capsaicin and QX-314 into the left hindpaw were made and mechanical and thermal sensitivities determined using von Frey hairs and radiant heat respectively.
# [8] = Sciatic nerve injection, motor function score and placing reflex
# Method: (§2) Motor effects were scored according to a scale of 0 (no effect; normal gait and limb placement), 1 (limb movement but with abnormal limb placement and movement) or 2 (complete loss of limb movement). […] For co-application of QX-314 and capsaicin into the para-sciatic nerve region, we injected QX-314 first, followed 10 minutes later by capsaicin, with the idea that QX-314 would be present extracellularly and ready to enter TRPV1 channels as soon as they were activated.
# (§3) For sciatic nerve injections, animals were first habituated to handling for 10 days. Lidocaine (0.2% or 2%, 100 μL); QX-314 (0.2%, 100 μL) alone; capsaicin (50 μg in 100 μL) alone, or QX-314 followed by capsaicin (10 minutes interval) were injected into the area of sciatic nerve below the hip joint. Mechanical and thermal thresholds were determined using von Frey filaments and radiant heat. […] Walking, climbing, walking on the rod and placing reflex were examined. […] All experiments were done with the experimenter blinded.
# [9] = Sciatic nerve injection, thermal (radiant heat) response latency; assay type: in vivo, rat; details: QX-314 0.2%, 100 μL, capsaicin 0.5 μg/μL, 100 μL (for 30 min)
# Method: as §2, §3
# [10] = Sciatic nerve injection, mechanical threshold (von Frey filaments); assay type: in vivo, rat; details: QX-314 0.2%, 100 μL, capsaicin 0.5 μg/μL, 100 μL (for 30 min), or QX-314 then capsaicin, stiffest hair 57 g
# Method: as §2, §3
# [11] = Intraplantar injection, spontaneous flinching; details: first 5 min after intraplantar injection
# Method: as §4, §5
# [12] = molecular target: T1, TRPV1 receptors (Rattus norvegicus, UniProt O35433); test: Capsaicin-evoked inward current in small DRG neurons (test for TRPV1 expression); assay type: cell-based; details: 1-sec application of 1 μM capsaicin
# T1 construct: Dorsal root ganglia from 6-8 week old Sprague-Dawley rats were removed; endogenous in cells; host or cells: primary cultured DRG neurons from 6-8 week old Sprague-Dawley rats
# T1 sequence (O35433 whole entry): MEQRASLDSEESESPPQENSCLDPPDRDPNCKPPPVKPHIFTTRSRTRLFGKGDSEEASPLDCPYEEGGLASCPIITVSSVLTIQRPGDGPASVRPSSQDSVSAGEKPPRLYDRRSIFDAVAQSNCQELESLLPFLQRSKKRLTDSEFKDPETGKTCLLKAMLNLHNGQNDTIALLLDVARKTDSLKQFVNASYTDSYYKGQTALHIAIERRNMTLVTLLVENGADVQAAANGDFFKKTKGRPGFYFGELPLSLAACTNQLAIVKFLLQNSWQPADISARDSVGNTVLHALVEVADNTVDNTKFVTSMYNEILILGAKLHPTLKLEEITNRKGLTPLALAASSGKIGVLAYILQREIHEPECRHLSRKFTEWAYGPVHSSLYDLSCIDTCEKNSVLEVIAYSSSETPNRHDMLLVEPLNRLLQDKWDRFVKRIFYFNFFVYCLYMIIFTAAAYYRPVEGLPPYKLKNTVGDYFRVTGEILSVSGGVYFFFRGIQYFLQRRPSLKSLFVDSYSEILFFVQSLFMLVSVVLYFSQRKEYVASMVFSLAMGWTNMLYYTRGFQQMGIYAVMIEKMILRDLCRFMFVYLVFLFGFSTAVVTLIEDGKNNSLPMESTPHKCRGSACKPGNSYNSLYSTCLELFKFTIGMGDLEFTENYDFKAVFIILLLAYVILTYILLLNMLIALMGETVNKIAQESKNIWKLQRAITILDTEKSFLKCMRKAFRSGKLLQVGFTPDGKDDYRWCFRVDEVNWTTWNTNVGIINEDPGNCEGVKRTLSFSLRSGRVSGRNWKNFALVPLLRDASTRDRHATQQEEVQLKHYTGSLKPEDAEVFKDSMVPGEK
# Method: We recorded current through voltage-dependent sodium channels using whole-cell voltage clamp recordings from adult rat DRG neurons. To select for nociceptors, we recorded from small (24±5 μm; n=25) neurons and tested the neurons for the expression of TRPV1 receptors by a short (1-sec) application of 1 μM capsaicin. […] Sodium currents were elicited by depolarizing steps from a holding potential of −70 mV.
# Dorsal root ganglia from 6-8 week old Sprague-Dawley rats were removed and placed into Dulbecco's Minimum Essential Medium containing 1% penicillin—streptomycin (Sigma), then treated for 90 minutes with 5 mg/ml collagenase, 1 mg/ml Dispase II (Roche, Indianapolis, Ind.) and for 7 minutes with 0.25% trypsin, followed by addition of 2.5% trypsin inhibitor. Cells were triturated in the presence of DNAase I inhibitor (50 U), centrifuged through 15% BSA (Sigma), resuspended in 1 ml Neurobasal medium (Sigma), 10 μM AraC, NGF (50 ng/ml) and GDNF (2 ng/ml) and plated onto poly-lysine (500 μg/ml) and laminin (5 mg/ml) coated 35 mm tissue culture dishes (Becton Dickinson) at 8000-9000 per well. Cultures were incubated at 37° C., 5% carbon dioxide. Recordings were made within 48 hours after plating.
# (§6) Whole-cell voltage-clamp or current-clamp recordings were made using an Axopatch 200A amplifier (Axon Instruments, Union City, Calif.) and patch pipettes with resistances of 1-2 MΩ. […]
# [13] = test system: TRPV1 receptors; test: Capsaicin-evoked inward current in large DRG neurons; assay type: cell-based, rat; details: soma diameter >40 μm; 10 of 10
# Method: Dorsal root ganglia from 6-8 week old Sprague-Dawley rats were removed and placed into Dulbecco's Minimum Essential Medium containing 1% penicillin—streptomycin (Sigma), then treated for 90 minutes with 5 mg/ml collagenase, 1 mg/ml Dispase II (Roche, Indianapolis, Ind.) and for 7 minutes with 0.25% trypsin, followed by addition of 2.5% trypsin inhibitor. Cells were triturated in the presence of DNAase I inhibitor (50 U), centrifuged through 15% BSA (Sigma), resuspended in 1 ml Neurobasal medium (Sigma), 10 μM AraC, NGF (50 ng/ml) and GDNF (2 ng/ml) and plated onto poly-lysine (500 μg/ml) and laminin (5 mg/ml) coated 35 mm tissue culture dishes (Becton Dickinson) at 8000-9000 per well. Cultures were incubated at 37° C., 5% carbon dioxide. Recordings were made within 48 hours after plating. Average size of small neurons chosen as likely nociceptors was 23±6 μm (n=50) and that of large neurons was 48±8 μm (n=10).
# as §6
structure (smiles),measurement,setting,value
C=CCN=C=S [MO],reduction of sodium current,[1],20-30%
same,time to plateau of sodium current reduction,[1],approximately 3 minutes
CC[N+](CC)(CC)CC(=O)Nc1c(C)cccc1C [QX-314],increase of sodium current,[2]; QX-314 alone,8±4%
same,effect on thermal response latency / reaction to noxious radiant heat,[3],transiently reduced the thermal response latency
same,effect on action potential,[4],no effect
same,effect of external QX-314 alone on sodium channels,[5]; external application,no effect
same,decrease of sodium current,"[6]; bath application of 5 mM QX-314 alone, 5-minute application",3±0.5%
same,effect on mechanical threshold for withdrawal response,[7],no significant effect
same,effect on motor function,"[8]; rat, in vivo",no effect on motor function
same,effect on thermal response latency,[9],no significant effect
same,effect on mechanical threshold,[10],no significant effect
COc1cc(CNC(=O)CCCC/C=C/C(C)C)ccc1O [capsaicin],average increase of sodium current,[2]; capsaicin alone,3±2%
same,effect on thermal response latency / reaction to noxious radiant heat,[3],reduced as expected the thermal response latency
same,effect on action potential,[4],reduced the action potential amplitude
same,number of flinches,[11],40±6
same,inhibition of sodium current,"[6]; capsaicin alone, 1 μM for 1-10 minutes",31±9%
same,small neurons in which capsaicin produced inward current,[12],25/25
same,duration of prolonged inward current,[12]; small neurons,10 ± 3 s
same,effect on mechanical threshold for withdrawal response,[7],significantly reduced the mechanical threshold
same,mean motor score,"[8]; capsaicin alone 0.5 μg/μL, 100 μL, within 30 min after injection, scale 0-2",0.7±0.2
same,animals with sustained flexion of the injected limb,[8]; sciatic injection,4 out of the 6
same,effect on placing reflex,[8]; sciatic injection,unchanged
same,effect on thermal response latency,[9],reduced
same,inward current elicited in large DRG neurons,[13],did not elicit an inward current
same,effect on mechanical threshold,[10],reduced
CCN(CC)CC(=O)Nc1c(C)cccc1C [lidocaine],duration of complete loss of placing reflex,"[8]; rat, in vivo",at least 30 minutes
same,effect on motor function,"[8]; rat, in vivo",complete paralysis of the lower limb
same,effect on placing reflex,"[8]; rat, in vivo",complete loss of the tactile stimulus-evoked placing reflex
same,time of full recovery of sensory and motor deficits,"[8]; rat, in vivo",≤ 45 min
same,mean motor score,"[8]; rat, in vivo, 30 min",1.67±0.2
"C=CCc1ccc(O)c(OC)c1 [eugenol, 2-methoxy-4-(2-propenyl)phenol]",inhibition of sodium current,[5]; eugenol alone,10-20%
